Test results taken from patent US6703237B2, “Methods and formulations for mediating adeno-associated virus (AAV) attachment and infection and methods for purifying AAV” (priority 1998, dated 2004).

Legend:
[1] = system: rAAV-LacZ; assay: Inhibition of rAAV-LacZ transduction of HeLa cells by soluble GAGs; assay type: cell-based, AAV-2
Description: FIGS. 1A and 1B illustrate the inhibition of AAV infection by various glycosaminoglycans. In the data shown in FIG. 1A, rAAV was incubated with the indicated concentrations of heparin (solid squares), chondroitin sulfate B (dermatan sulfate) (open circles), chondroitin sulfate A (open diamonds) or chondroitin sulfate C (open triangles) for 1 hour at 37° C. prior to a 1-hour adsorption period of the virus/GAG mixture to HeLa cells for infection. β-galactosidase activity was assayed 44 hours post-infection using a Galacto-Light Plus kit (Tropix Inc.), and measured in a luminometer. Each point denotes the average % decrease in Relative Light Units (RLU) per ug of protein relative to the maximum RLU/μg protein obtained in experiments without GAG. In the data shown in FIG. 1B, HeLa cells were preincubated with increasing concentrations of heparin at 37° C. for 1 hour. After thorough washing, cells were infected with rAAV as described above. Data points represent the average % maximum RLU/ug protein obtained without heparin preincubation.
rAAV-LacZ at an MOI of 2 was incubated in DMEM-H media in the presence or absence of indicated soluble GAGs at 1.0, 5.0, 10, 20, 30 μg/ml for 1 h at 37° C. For infection, rAAV-LacZ or the virus/GAG mixture was incubated with 2×10^5 HeLa cells for 1 h at 37° C. in a 5% CO2 chamber. […]

[2] = system: 3H-wt AAV-2; assay: Inhibition of 3H-wt AAV-2 binding to HeLa cells by soluble GAGs; conditions: 90 min at 4° C.
Description: FIG. 2 illustrates that soluble heparin inhibits binding of AAV to the cell surface. After pre-incubation of 3H-wt AAV-2 with increasing concentrations of the indicated GAGs or the GAG analogue dextran sulfate, labeled virus was adsorbed to HeLa cells for 90 minutes at 4° C. Unbound virus was removed by three washes with ice cold binding buffer and radioactivity was quantitated as described in methods. Data is represented as the average % inhibition relative to the CPM bound in the absence of soluble GAG.
(§1) For direct binding assays, ^3H-labeled wtAAV-2 was incubated with cells either attached to plates or in suspension, as indicated, at a ratio of 4×10^11 particles/3×10^5 cells for 90 minutes at 4° C. in HBSB. Cells were then washed 3 times in ice cold HBSB to remove unbound virus, and were solubilized in 0.3 N NaOH. After neutralization with glacial acetic acid, cell-associated radioactivity was quantitated in a scintillation counter. For inhibition studies, and after enzymatic treatments, ^3H-AAV was bound to adherent HeLa cells. Binding to wild type CHO and CHO cell mutants was done with suspended cells. […] Non-specific binding was determined in the presence of 100-fold excess unlabeled wt AAV (previously dialyzed in HBS, 10% glycerol). Binding of Cy3-labeled virus was done on wild type CHO and pgsA-745 cells grown on coverslips. After fixation in 4% paraformaldehyde for 20 minutes at room temperature, cells were mounted on slides and bound Cy3 labeled virus was detected by confocal microscopy. […]
To further examine the observed specificity and to determine whether GAGs were inhibiting binding of the AAV virions to the cell surface, ^3H-wt AAV was incubated with GAGs (heparin, dermatan sulfate, chondroitin sulfate A, chondroitin sulfate C, dextran sulfate) at various concentrations. After incubation with cells, the mixture was washed and cells were solubilized to quantify bound virus. […]

[3] = system: cell surface glycosaminoglycans of HeLa cells; assay: 3H-AAV binding to HeLa cells after GAG lyase digestion of cell surface GAGs; conditions: maximum concentration of enzyme tested
Description: (§2) FIGS. 3A and 3B illustrate the effect of enzymatic digestion of cell surface glycosaminoglycans on AAV binding and infection. In the data shown in FIG. 3A, HeLa cells were treated with the indicated concentrations of the following GAG lyases: heparitinase (solid squares), heparinase I (open diamonds), chondroitinase ABC (open circles), or chondroitinase AC (open triangles), as described in Example 13, below. After thorough washing, the ability of AAV to bind the cell surface was assessed as described in Example 12, below. Data points represent the average % reduction in AAV binding relative to AAV binding obtained without enzymatic treatment. In the data shown in FIG. 3B, HeLa cells were treated with heparitinase or heparinase I as described herein. After thorough washing, rAAV was incubated with cells for a I hour adsorption period at 37° C. Cells were harvested 44 hours post-infection and assayed for β-galactosidase activity. Results are shown as the average % reduction in AAV transduction relative to transduction observed in the absence of enzymatic treatment. Data points represent the mean and standard deviation of experiments performed in triplicate.
as §1
GAG lyases were reconstituted in phosphate buffered saline (PBS). […] Prior to use, each enzyme was tested for activity by a standard method used to determine specific activity of GAG lyases, except that enzyme activity was monitored under the conditions used for digestion, PBS pH 7.4 at 37° C. […]
Subconfluent HeLa cells were treated with various concentrations of each specific enzyme and assessed for ^3H-AAV binding.

[4] = system: rAAV-LacZ; assay: rAAV-lacZ transduction of HeLa cells with low concentrations of heparin; assay type: cell-based, AAV-2; conditions: heparin 0.001 and 0.004 μg/mL, 48 h after infection
Description: HeLa cells were infected with rAAV-lacZ virus in the presence or absence of heparin, at the indicated concentrations, for one hour at 37° C. […] Results are reported as the mean and standard deviation of one experiment performed in triplicate.
HeLa cells were infected with rAAV-lacZ virus in the presence or absence of heparin, at concentrations of 0 μg/mL, 0.001 μg/mL, and 0.004 μg/mL, for one hour at 37° C. […] The results of this experiment are shown in FIG. 6 as the mean and standard deviation of one experiment performed in triplicate.

[5] = system: cell surface glycosaminoglycans of HeLa cells; assay: rAAV-LacZ transduction of HeLa cells after GAG lyase digestion; assay type: cell-based; conditions: for reduction of rAAV transduction compared to untreated control cells: HeLa cells treated with various concentrations of enzyme
Description: as §2
GAG lyases were reconstituted in phosphate buffered saline (PBS). For enzymatic digestion of cell surface GAGs, 3×10^4 HeLa cells were washed and incubated with the indicated concentrations of GAG lyases in PBS containing 0.1%BSA, 0.2% gelatin and 0.1% glucose (digestion buffer) for 1 hour at 37° C. in a 5% CO2 chamber. Cells were then washed four times with digestion buffer and subjected to rAAV infection as described above. Prior to use, each enzyme was tested for activity by a standard method used to determine specific activity of GAG lyases, except that enzyme activity was monitored under the conditions used for digestion, PBS pH 7.4 at 37° C. (Linhardt, (1994) Analysis of glycosaminoglycans with polysaccharide lyases, p. 17.13.17-17.13.32. in K. Janssen (ed.), Current Protocols in Molecular Biology, vol. 3. John Wiley & Sons, Inc., New York). Cells remained attached to the plate after all enzymatic treatments. […]

Molecule: chondroitin sulfate B
- inhibition of rAAV transduction (β-galactosidase activity) ([1]; 30 μg/ml GAG, HeLa cells, 44 h post-infection): 71%
- inhibition of AAV binding ([2]; 30 μg/ml): 51%

Molecule: chondroitinase ABC
- reduction of 3H-AAV binding to the cell surface after enzymatic treatment [3]: did not result in any reduction

Molecule: dextran sulfate
- inhibition of AAV binding ([2]; 30 μg/ml): 36%

Molecule: heparin
- inhibition of rAAV transduction after preincubation of cells ([1]; HeLa cells preincubated with heparin up to 20 μg/ml, washed before infection): less than 20%
- inhibition of AAV binding ([2]; 5 μg/ml): 90%
- effect on rAAV transduction (β-galactosidase, RLU/μg protein) [4]: enhance rAAV transduction

B1: heparinase: GAG lyase purchased from Sigma; cleaves linkages found in heparan sulfate (protein, UniProt Q05819 22-384, looked up)
Heparin lyase I: QQKKSGNIPYRVNVQADSAKQKAIIDNKWVAVGINKPYALQYDDKLRFNGKPSYRFELKAEDNSLEGYAAGETKGRTELSYSYATTNDFKKFPPSVYQNAQKLKTVYHYGKGICEQGSSRSYTFSVYIPSSFPDNATTIFAQWHGAPSRTLVATPEGEIKTLSIEEFLALYDRMIFKKNIAHDKVEKKDKDGKITYVAGKPNGWKVEQGGYPTLAFGFSKGYFYIKANSDRQWLTDKADRNNANPENSEVMKPYSSEYKTSTIAYKMPFAQFPKDCWITFDVAIDWTKYGKEANTILKPGKLDVMMTYTKNKKPQKAHIVNQQEILIGRNDDDGYYFKFGIYRVGNSTVPVTYNLSGYSETAR
- reduction of 3H-AAV binding to the cell surface after enzymatic treatment [3]: 66%
- reduction of rAAV transduction compared to untreated control cells [5]: 80%

B2: chondroitinase AC: GAG lyase from Seikagagku; cleaves only chondroitin sulfate type A and C (protein, UniProt Q59288 23-700, looked up)
Chondroitinase-AC: QQTGTAELIMKRVMLDLKKPLRNMDKVAEKNLNTLQPDGSWKDVPYKDDAMTNWLPNNHLLQLETIIQAYIEKDSHYYGDDKVFDQISKAFKYWYDSDPKSRNWWHNEIATPQALGEMLILMRYGKKPLDEALVHKLTERMKRGEPEKKTGANKTDIALHYFYRALLTSDEALLSFAVKELFYPVQFVHYEEGLQYDYSYLQHGPQLQISSYGAVFITGVLKLANYVRDTPYALSTEKLAIFSKYYRDSYLKAIRGSYMDFNVEGRGVSRPDILNKKAEKKRLLVAKMIDLKHTEEWADAIARTDSTVAAGYKIEPYHHQFWNGDYVQHLRPAYSFNVRMVSKRTRRSESGNKENLLGRYLSDGATNIQLRGPEYYNIMPVWEWDKIPGITSRDYLTDRPLTKLWGEQGSNDFAGGVSDGVYGASAYALDYDSLQAKKAWFFFDKEIVCLGAGINSNAPENITTTLNQSWLNGPVISTAGKTGRGKITTFKAQGQFWLLHDAIGYYFPEGANLSLSTQSQKGNWFHINNSHSKDEVSGDVFKLWINHGARPENAQYAYIVLPGINKPEEIKKYNGTAPKVLANTNQLQAVYHQQLDMVQAIFYTAGKLSVAGIEIETDKPCAVLIKHINGKQVIWAADPLQKEKTAVLSIRDLKTGKTNRVKIDFPQQEFAGATVELK
- reduction of 3H-AAV binding to the cell surface after enzymatic treatment [3]: did not result in any reduction

B3: heparitinase: GAG lyase purchased from Sigma; cleaves linkages found in heparan sulfate (protein, UniProt Q59289 25-659, looked up)
Heparin-sulfate lyase: QSSSITRKDFDHINLEYSGLEKVNKAVAAGNYDDAAKALLAYYREKSKAREPDFSNAEKPADIRQPIDKVTREMADKALVHQFQPHKGYGYFDYGKDINWQMWPVKDNEVRWQLHRVKWWQAMALVYHATGDEKYAREWVYQYSDWARKNPLGLSQDNDKFVWRPLEVSDRVQSLPPTFSLFVNSPAFTPAFLMEFLNSYHQQADYLSTHYAEQGNHRLFEAQRNLFAGVSFPEFKDSPRWRQTGISVLNTEIKKQVYADGMQFELSPIYHVAAIDIFLKAYGSAKRVNLEKEFPQSYVQTVENMIMALISISLPDYNTPMFGDSWITDKNFRMAQFASWARVFPANQAIKYFATDGKQGKAPNFLSKALSNAGFYTFRSGWDKNATVMVLKASPPGEFHAQPDNGTFELFIKGRNFTPDAGVFVYSGDEAIMKLRNWYRQTRIHSTLTLDNQNMVITKARQNKWETGNNLDVLTYTNPSYPNLDHQRSVLFINKKYFLVIDRAIGEATGNLGVHWQLKEDSNPVFDKTKNRVYTTYRDGNNLMIQSLNADRTSLNEEEGKVSYVYNKELKRPAFVFEKPKKNAGTQNFVSIVYPYDGQKAPEISIRENKGNDFEKGKLNLTLTINGKQQLVLVP
- reduction of 3H-AAV binding to the cell surface after enzymatic treatment [3]: 73%
- reduction of AAV infection ([5]; 0.425 mIU/ml enzyme, HeLa cells): up to 72%
- reduction of rAAV transduction compared to untreated control cells [5]: 80%
